Measured values: US12052991B2, “Substituted pyridinyloxybenzenes and salts thereof and use thereof as herbicidal agents” (Bayer Aktiengesellschaft, priority 2018, dated 2024)

Columns and labels:
Type in all cases: in vivo
[1] = system: Echinochloa crus-galli (ECHCG); experiment: Herbicidal post-emergence action (Table B1); details: rated visually after about 3 weeks, 100% = plants have died, 0% = like control plants
Summary of the method: (§1)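 Weeds grown from seed in sandy loam in the greenhouse were sprayed at the one-leaf stage, 2 to 3 weeks after sowing, with WP or EC formulations in water plus 0.5% additive at 600 L/ha. Rates corresponded to 1280 or 320 g/ha; damage was rated visually versus untreated controls after about 3 weeks.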

Lolium rigidum (LOLRI) [2] = experiment: Herbicidal post-emergence action (Table B2); details: 1280 g/ha; rated visually after about 3 weeks; 100% = plants have died, 0% = like control plants
Protocol: (§2) Seeds of mono- and dicotyledonous weed plants were placed in plastic pots in sandy loam soil (doubly sown with in each case one species of mono- or dicotyledonous weed plants per pot), covered with soil and cultivated in a greenhouse under controlled growth conditions. 2 to 3 weeks after sowing, the test plants were treated at the one-leaf stage. The compounds of the invention, formulated in the form of wettable powders (WP) or as emulsion concentrates (EC), were applied onto the green parts of the plants as aqueous suspension or emulsion with addition of 0.5% additive at a water application rate of 600 liters per hectare (converted). After the test plants had been kept in the greenhouse under optimum growth conditions for about 3 weeks, the activity of the preparations was rated visually in comparison to untreated controls. For example, 100% activity=the plants have died, 0% activity=like control plants. Tables B1 to B12 below show the effects of selected compounds of the general formula (I) according to Table 1 on various harmful plants and an application rate corresponding to 1280 or 320 g/ha, which were obtained by the experimental procedure mentioned above.

Poa annua (POAAN) [3] = experiment: Herbicidal pre-emergence action, test C (Table C3); details: visual scoring after about 3 weeks, 100% = plants have died, 0% = like control plants
Summary of the method: (§3)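 Sandy loam, doubly sown pots; surface spray pre-emergence; 1280 or 320 g/ha; 0.5% additive; 600 L/ha. Greenhouse, ~3 weeks. Visual % vs untreated.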

[4] = system: Amaranthus retroflexus (AMARE); experiment: Herbicidal pre-emergence action, test C (Table C6); details: visual scoring after about 3 weeks, 100% = plants have died, 0% = like control plants
Summary of the method: as §3

[5] = system: Abutilon theophrasti (ABUTH); experiment: Herbicidal pre-emergence action, test C (Table C5); details: visual scoring after about 3 weeks, 100% = plants have died, 0% = like control plants
Summary of the method: as §3

Poa annua (POAAN) [6] = experiment: Herbicidal post-emergence action (Table B3); details: rated visually after about 3 weeks, 100% = plants have died, 0% = like control plants
Summary of the method: as §1

[7] = system: harmful plants ABUTH, AMARE, ECHCG, LOLRI, MATIN, POAAN, SETVI, STEME, ALOMY, DIGSA, KCHSC and VERPE; experiment: Herbicidal pre-emergence action (test C), summary of Tables C1-C12; details: application rate of 1280 or 320 g of active ingredient per hectare; summary in words
Summary of the method: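 Pre-emergence pot test in sandy loam: WP or EC formulations were sprayed onto the covering soil with 0.5% additive at 600 L/ha water, at 1280 or 320 g/ha. Plants were kept in the greenhouse, and activity was rated visually about 3 weeks later as % versus untreated controls (100% = dead).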

Setaria viridis (SETVI) [8] = experiment: Herbicidal pre-emergence action, test C (Table C4); details: visual scoring after about 3 weeks, 100% = plants have died, 0% = like control plants
Summary of the method: as §3

Setaria viridis (SETVI) [9] = experiment: Herbicidal post-emergence action (Table B4); details: rated visually after about 3 weeks, 100% = plants have died, 0% = like control plants
Protocol: as §2

[10] = system: Abutilon theophrasti (ABUTH); experiment: Herbicidal post-emergence action (Table B5); details: rated visually after about 3 weeks, 100% = plants have died, 0% = like control plants
Summary of the method: as §1

[11] = system: Matricaria inodora (MATIN); experiment: Herbicidal pre-emergence action, test C (Table C7); details: dosage 1280 g/ha; visual scoring after about 3 weeks; 100% = plants have died, 0% = like control plants
Summary of the method: as §3

[12] = system: harmful plants ABUTH, AMARE, ECHCG, LOLRI, MATIN, POAAN, SETVI, STEME, ALOMY, DIGSA, KCHSC and VERPE; experiment: Herbicidal post-emergence action, summary of Tables B1-B12; details: application rate of 1280 or 320 g of active ingredient per hectare; summary in words
Summary of the method: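 Greenhouse weeds in sandy loam treated post-emergence at the one-leaf stage, 2–3 weeks after sowing, with WP or EC formulations sprayed with 0.5% additive at 600 L/ha water, 1280 or 320 g/ha. Damage rated visually after about 3 weeks versus untreated controls (0% = like control, 100% = dead).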

[13] = system: Amaranthus retroflexus (AMARE); experiment: Herbicidal post-emergence action (Table B6); details: dosage 1280 g/ha; visual rating about 3 weeks after treatment; 100% = plants have died, 0% = like control plants
Summary of the method: as §1

Lolium rigidum (LOLRI) [14] = experiment: Herbicidal pre-emergence action, test C (Table C2); details: dosage 1280 g/ha; visual scoring after about 3 weeks; 100% = plants have died, 0% = like control plants
Summary of the method: as §3

Stellaria media (STEME) = experiment: Herbicidal post-emergence action (Table B8); details: visual rating about 3 weeks after treatment, 100% = plants have died, 0% = like control plants
Summary of the method: as §1

SMILES: Fc1cccc(Oc2ncc(Cl)cc2Cl)c1-c1cc(C(F)F)no1 [Example 1-21]
- Post-emergence action against Echinochloa crus-galli (ECHCG) ([1]; 320 g/ha): 100%
- Post-emergence action against Echinochloa crus-galli (ECHCG) ([1]; 1280 g/ha): 100%
- Post-emergence action against Lolium rigidum (LOLRI) (Lolium rigidum (LOLRI) [2]): 100%
- Pre-emergence action against Poa annua (POAAN) (Poa annua (POAAN) [3]; dosage 320 g/ha): 100%
- Pre-emergence action against Poa annua (POAAN) (Poa annua (POAAN) [3]; dosage 1280 g/ha): 100%
- Pre-emergence action against Amaranthus retroflexus (AMARE) ([4]; dosage 320 g/ha): 100%
- Pre-emergence action against Amaranthus retroflexus (AMARE) ([4]; dosage 1280 g/ha): 100%
- Pre-emergence action against Abutilon theophrasti (ABUTH) ([5]; dosage 320 g/ha): 90%
- Pre-emergence action against Abutilon theophrasti (ABUTH) ([5]; dosage 1280 g/ha): 90%
- Post-emergence action against Poa annua (POAAN) (Poa annua (POAAN) [6]; 320 g/ha): 100%
- Post-emergence action against Poa annua (POAAN) (Poa annua (POAAN) [6]; 1280 g/ha): 100%
- herbicidal activity against the harmful plants of Tables C1-C12 in pre-emergence treatment [7]: very good herbicidal activity
- Pre-emergence action against Setaria viridis (SETVI) (Setaria viridis (SETVI) [8]; dosage 320 g/ha): 100%
- Pre-emergence action against Setaria viridis (SETVI) (Setaria viridis (SETVI) [8]; dosage 1280 g/ha): 100%
- Post-emergence action against Setaria viridis (SETVI) (Setaria viridis (SETVI) [9]; 320 g/ha): 90%
- Post-emergence action against Setaria viridis (SETVI) (Setaria viridis (SETVI) [9]; 1280 g/ha): 100%
- Post-emergence action against Abutilon theophrasti (ABUTH) ([10]; 320 g/ha): 100%
- Post-emergence action against Abutilon theophrasti (ABUTH) ([10]; 1280 g/ha): 100%
- Pre-emergence action against Matricaria inodora (MATIN) [11]: 90%
- herbicidal activity against the harmful plants of Tables B1-B12 in post-emergence treatment [12]: very good herbicidal activity
- Post-emergence action against Amaranthus retroflexus (AMARE) [13]: 90%
- Pre-emergence action against Lolium rigidum (LOLRI) (Lolium rigidum (LOLRI) [14]): 100%
- Post-emergence action against Stellaria media (STEME) (Stellaria media (STEME); dosage 320 g/ha): 100%
- Post-emergence action against Stellaria media (STEME) (Stellaria media (STEME); dosage 1280 g/ha): 100%
